From patent US6930203B2, “Gelling agents or thickeners” (Applied NanoSystems B.V., priority 2001, dated 2005)

What was measured:
Type in all cases: physicochemical
[1] = Solvent scope of N,N′-dialkylaldaramides (1%) or N,N′-dialkylpentaramides (1%): gelation/solubility behaviour in solvents; design: key: g = gelation; s = soluble; p = precipitates; c = crystallizes; ns = not soluble; v = viscous; g* = unstable gel, precipitates; cg = crystalline gel; conditions: 1% gelling agent
Excerpt: It will be understood that the use of the present gelling agents or thickeners to prepare a gel or to thicken a composition is also encompassed by the invention. As is well known, gelling behavior of compounds or compositions is highly unpredictable. […] Preferably, the gelling phenomenon is thermo reversible.
(§1) Preferred examples include aromatic and nonaromatic hydrocarbons, alcohols, ethers, esters, aldehydes, alkanoic acids, epoxides, amines, halogenated hydrocarbons, silicon oils, vegetable oils, phosphoric esters, sulfoxides, water and mixtures thereof. In order to obtain a gel, the gelling agent or thickener is preferably mixed with the composition to be transformed to a gel in an amount of between 0.01 and 50 wt. %, based on the weight of the composition. In a preferred embodiment, the mixture of the gelling agent or thickener and the composition is heated to allow for an even better gel formation or thickening. Typically, the heating will involve raising the temperature of the mixture to about 30-175° C. until a clear solution is obtained. In an alternative embodiment, the gelling agent is first dissolved in a polar or apolar solvent and then added to or sprayed into a composition or solvent to be converted into a gel.
Solvent scope of N,N′-dialkylaldaramides (1%) or N,N′-dialkylpentaramides (1%) 1-24 refers to the compounds prepared in Examples 1-23)

[2] = Gelation of N,N′-dialkyladaramides (1%) in mixtures of solvents; design: key: g = gelation; s = soluble; p = precipitates; c = crystallizes; ns = not soluble; v = viscous; g* = unstable gel, precipitates; cg = crystalline gel; conditions: 1% gelling agent
Excerpt: as §1
Gelation of N,N′-dialkyladaramides (1%) in Mixtures of Solvents

[3] = Cold gelation: addition of a solution of the gelling agent (10% in NMP, 0.05 ml) to an organic solution (0.5 ml); design: key: g = gelation; s = soluble; p = precipitates; c = crystallizes; ns = not soluble; v = viscous; g* = unstable gel, precipitates; cg = crystalline gel
Excerpt: as §1
Addition of a solution of the gelling agent (10% in NMP, 0.05 ml) to an organic solution (0.5 ml, “cold gelation”)

[4] = Maximum gelator concentration
Excerpt: Maximum gelator concentration of 5 (C6-Glu-C6) and 15 (C12-Glu-C12)

[5] = Phase diagram, dropping ball method; conditions: in cyclohexane, silicon oil and p-xylene
Experimental: FIG. 1 depicts a phase diagram of 5 (C6-Glu-C6) and 15 (C12-Glu-C12) determined with the dropping ball method.
Phase Diagram of 5 (C6-Glu-C6) and 15 (C12-Glu-C12)) Dropping Ball Method)
The phase diagram of 5 (C6-Glu-C6) and 15 (C12-Glu-C12) was determined (see FIG. 1) by using the dropping ball method (A. Takashi, M. Sakai, T. Kato, Polym. J., 12 (1980) 335-341, F. S. Schoonbeek, J. H. van Esch, R. Hulst, R. M. Kellogg, B. L. Feringa, Chem. Eur. J., 6 (2000) 2633-2643).

Gelation/solubility behaviour in 1,2-dichloroethane ([1]; 1,2-dichloroethane): g | Gelation/solubility behaviour in 2-methoxyethanol ([1]; 2-methoxyethanol): c | Gelation/solubility behaviour in 2-octanol ([1]; 2-octanol): s | Gelation/solubility behaviour in 2-propanol ([1]; 2-propanol): c | Gelation/solubility behaviour in Cyclohexane ([1]; Cyclohexane): g | Gelation/solubility behaviour in Dimethylsulfoxide ([1]; Dimethylsulfoxide): cg | Gelation/solubility behaviour in Ethanol ([1]; Ethanol): cg | Gelation/solubility behaviour in Hexadecane ([1]; Hexadecane): ns | Gelation/solubility behaviour in Toluene ([1]; Toluene): g | Gelation/solubility behaviour in Water ([1]; Water): ns | Gelation/solubility behaviour in methyl benzoic acid ([1]; methyl benzoic acid): g | Gelation/solubility behaviour in methyl laurate ([1]; methyl laurate): g | Gelation/solubility behaviour in n-butylacetate ([1]; n-butylacetate): g | Gelation/solubility behaviour in p-xylene ([1]; p-xylene): g | Gelation/solubility behaviour in silicon oil ([1]; silicon oil): g | Gelation in cyclohexane ([2]; Cyclohexane): g | Gelation in Dioxane ([2]; Dioxane): cg | Gelation in H2O ([2]; H2O): ns | Gelation in cyclohexane/dioxane 1:1 ([2]; cyclohexane/dioxane 1:1): cg | Gelation in dioxane/H2O 1:1 ([2]; dioxane/H2O 1:1): g | Gelation in dioxane/H2O 1:2 ([2]; dioxane/H2O 1:2): ns | Gelation in dioxane/H2O 2:1 ([2]; dioxane/H2O 2:1): cg | Gelation in dioxane/H2O 3:1 ([2]; dioxane/H2O 3:1): cg | Cold gelation in 1,2-dichloroethane ([3]; 0.05 ml added to 0.5 ml 1,2-dichloroethane): c | Cold gelation in Acetone ([3]; 0.05 ml added to 0.5 ml Acetone): cg | Cold gelation in Acetonitril ([3]; 0.05 ml added to 0.5 ml Acetonitril): g | Cold gelation in Chloroform ([3]; 0.05 ml added to 0.5 ml Chloroform): s | Cold gelation in Heptane ([3]; 0.05 ml added to 0.5 ml Heptane): p | Cold gelation in Hexane ([3]; 0.05 ml added to 0.5 ml Hexane): p | Cold gelation in Toluene ([3]; 0.05 ml added to 0.5 ml Toluene): g | Cold gelation in benzaldehyde ([3]; 0.05 ml added to 0.5 ml benzaldehyde): s | Cold gelation in cyclohexane ([3]; 0.05 ml added to 0.5 ml cyclohexane): g | Cold gelation in diethyl ether ([3]; 0.05 ml added to 0.5 ml diethyl ether): g | Cold gelation in ethylacetate ([3]; 0.05 ml added to 0.5 ml ethylacetate): p | Cold gelation in methyl laurate ([3]; 0.05 ml added to 0.5 ml methyl laurate): g | Cold gelation in n-butyl acetate ([3]; 0.05 ml added to 0.5 ml n-butyl acetate): g | Cold gelation in silicon oil ([3]; 0.05 ml added to 0.5 ml silicon oil): g | Cold gelation in tetrahydrofuran ([3]; 0.05 ml added to 0.5 ml tetrahydrofuran): c | Maximum gelator concentration in 1,2-dichloroethane ([4]; 1,2-dichloroethane): <50% | Maximum gelator concentration in Toluene ([4]; Toluene): <50% | Maximum gelator concentration in cyclohexane ([4]; cyclohexane): <5% | Maximum gelator concentration in methyl laurate ([4]; methyl laurate): <5% | Maximum gelator concentration in n-butylacetate ([4]; n-butylacetate): <50% | Maximum gelator concentration in silicon oil (Dow Corning 702) ([4]; silicon oil (Dow Corning 702)): <50% | Correlation between Tm^−1 and the logarithm of the mole fraction [5]: linear correlation
SMILES: O=C(NC1CCCCCCCCCCC1)[C@@H](O)[C@@H](O)[C@H](O)[C@@H](O)C(=O)NC1CCCCCCCCCCC1 [Example 15, dicyclododecyl D-glucaramide]
